# Experimental data reported in patent US20240277658A1, “NLRP3 ACTIVATORS FOR USE IN THE TREATMENT OF INFECTIOUS DISEASES OR CANCER BY ACTIVATING NLRP3 INFLAMMASOME” (ALBERT-LUDWIGS-UNIVERSITÄT FREIBURG, priority 2020, published 2024).
# Where “and” joins values, the source holds several entries; their conditions need not be identical. Equal entries are not always repeated. Where two headings read alike, the source gives them in different places.
# What was measured:
# [1] = tested on: BMDCs; assay: LDH release (lytic cell death, pyroptosis) from LPS-primed BMDCs; assay type: cell-based, mouse; details: for Average (% positive control): LDH release; for cytotoxicity at 25 µM / cytotoxicity at 50 µM / cytotoxicity at 100 µM: Mus musculus, BMDC
# Outline: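 LDH released into medium, detected colorimetrically, served as the pyroptosis read-out in triplicate. LPS-primed (50 ng ml^−1, 3 h) murine bone marrow-derived dendritic cells received test compounds, typically 50 μM, or nigericin (5 μM), R837 or CL097 (100 μM) for 3 hours.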
# [2] = target: T1, NLRP3 inflammasome (Mus musculus, UniProt Q8R4B8); assay: IL-1β release from LPS-primed BMDCs (ELISA) as readout of NLRP3 inflammasome activation; assay type: cell-based
# T1 construct: endogenous in cells; host or cells: primary mouse bone marrow-derived dendritic cells (BMDCs), LPS-primed
# Outline: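 NLRP3 inflammasome activation was read out as IL-1β released into the supernatant, measured by ELISA. Murine BMDCs were primed with LPS (50 ng ml^−1, 3 hours), then incubated with compounds for 3 hours, with each condition run in three technical replicates. Nigericin at 5 μM acted as the positive control activator, and IL-1β release was also expressed as a percentage of that control.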
# [3] = 25 μM, positive control EN22 25 μM
# [4] = 50 μM, positive control EN22 25 μM
# [5] = 100 μM, positive control EN22 25 μM
# [6] = 25 μM, EN11 series table, read-out: Average LDH release (% of max.)
# [7] = 50 μM, EN11 series table, read-out: Average LDH release (% of max.)
# [8] = 100 μM, individual replicate values, read-out: LDH release (% of max.)
# [9] = 100 μM, read-out: Average LDH release (% of max.)
# [10] = 25 μM, individual replicate values, EN11 series table
# [11] = 50 μM, individual replicate values, EN11 series table
# [12] = 100 μM, individual replicate values
# [13] = IL-1β, 25 μM, positive control EN22 25 μM
# [14] = IL-1β, 50 μM, positive control EN22 25 μM
# [15] = IL-1β, 100 μM, positive control EN22 25 μM
# [16] = compound 50 μM, positive control nigericin 5 μM
# [17] = compound 50 μM, LPS-primed BMDCs, read-out: Average LDH release (% of max.)
# [18] = single replicates, compound 50 μM, LPS-primed BMDCs, read-out: LDH release (% of max.)
# [19] = IL-1β release, compound 50 μM, positive control nigericin 5 μM
# [20] = compound 50 μM, LPS-primed BMDCs
# [21] = single replicates, compound 50 μM, LPS-primed BMDCs
# T1 sequence (Q8R4B8 whole entry): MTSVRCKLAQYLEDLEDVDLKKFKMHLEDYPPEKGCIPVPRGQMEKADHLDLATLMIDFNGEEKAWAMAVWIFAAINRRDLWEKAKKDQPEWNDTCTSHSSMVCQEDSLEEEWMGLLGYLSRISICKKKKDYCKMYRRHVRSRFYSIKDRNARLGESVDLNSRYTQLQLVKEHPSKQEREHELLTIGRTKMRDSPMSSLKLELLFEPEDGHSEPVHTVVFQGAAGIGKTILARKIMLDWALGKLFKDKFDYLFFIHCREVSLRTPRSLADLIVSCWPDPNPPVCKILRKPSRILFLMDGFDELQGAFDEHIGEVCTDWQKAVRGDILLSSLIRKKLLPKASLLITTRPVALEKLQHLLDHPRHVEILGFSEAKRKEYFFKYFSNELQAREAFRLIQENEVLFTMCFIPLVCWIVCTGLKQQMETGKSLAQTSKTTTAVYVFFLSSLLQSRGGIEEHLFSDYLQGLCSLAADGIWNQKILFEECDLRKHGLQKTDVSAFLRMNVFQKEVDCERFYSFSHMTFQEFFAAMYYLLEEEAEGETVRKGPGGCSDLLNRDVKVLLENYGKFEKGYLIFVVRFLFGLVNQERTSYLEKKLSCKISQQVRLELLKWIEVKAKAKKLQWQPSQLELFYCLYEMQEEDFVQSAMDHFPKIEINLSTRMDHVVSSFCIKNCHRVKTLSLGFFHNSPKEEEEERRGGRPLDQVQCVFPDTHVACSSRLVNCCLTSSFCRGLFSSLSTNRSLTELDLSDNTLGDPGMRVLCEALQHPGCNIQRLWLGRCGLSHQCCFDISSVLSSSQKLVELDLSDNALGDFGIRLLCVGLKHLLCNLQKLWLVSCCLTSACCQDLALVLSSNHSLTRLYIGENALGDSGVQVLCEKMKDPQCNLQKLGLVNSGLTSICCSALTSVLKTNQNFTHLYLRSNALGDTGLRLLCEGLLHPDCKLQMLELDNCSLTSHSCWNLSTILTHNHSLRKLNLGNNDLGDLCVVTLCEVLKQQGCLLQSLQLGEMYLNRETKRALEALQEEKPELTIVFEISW
Compound,"Average IL-1β ([2]; 25 μM, EN11 series table) [ng/mL]","Average IL-1β ([2]; 50 μM, EN11 series table) [ng/mL]",Average IL-1β ([2]; 100 μM) [ng/mL],"Average (% positive control) [2, 13] [% positive control]","Average (% positive control) [2, 19] [% positive control]","Average IL-1β [2, 20] [ng/mL]","Average (% positive control) [1, 3] [% positive control]","Average (% positive control) [1, 4] [% positive control]","Average (% positive control) [1, 5] [% positive control]","cytotoxicity at 25 µM [1, 6] [%]","cytotoxicity at 50 µM [1, 7] [%]","cytotoxicity at 100 µM [1, 8] [%]","cytotoxicity at 100 µM [1, 9] [%]","IL-1β [2, 10]","IL-1β [2, 11]","IL-1β [2, 12]","Average (% positive control) [1, 16] [% positive control]","cytotoxicity at 50 µM [1, 17] [%]","cytotoxicity at 50 µM [1, 18] [%]","IL-1β [2, 21]",also measured
"O=C(NCc1ccccc1)NCc1ccc2ncccc2c1 [EN11-11, 3-benzyl-1-[(quinolin-6-yl)methyl]urea]",0.000,0.014,0.011,0.000,,,8.741,8.257,10.723,4.45,4.2,5.91,5.45,0.000 ng/mL,0.021 ng/mL and 0.022 ng/mL and 0.000 ng/mL,0.012 ng/mL and 0.021 ng/mL and 0.000 ng/mL,,,,,"Average (% positive control) [2, 14]: 0.975 % positive control; Average (% positive control) [2, 15]: 0.761 % positive control"
"N#CCOc1ccc(NC(=O)Nc2ccccc2)cc1 [L01.002, 1-[4-(cyanomethoxy)-phenyl]-3-phenylurea]",,,,,2.590,0.186,,,,,,,,,,,13.662,9.99,8.07,0.144 ng/mL and 0.249 ng/mL and 0.164 ng/mL,
"O=C(NCCCc1ccccc1)Nc1ccc2ncccc2c1 [EN11-13, 1-(3-phenylpropyl)-3-(quinolin-6-yl)urea]",0.011,0.067,0.297,0.764,,,15.011,20.209,31.963,7.63,10.3,19.3,16.3,0.000 ng/mL and 0.011 ng/mL and 0.023 ng/mL,0.067 ng/mL,0.243 ng/mL and 0.331 ng/mL and 0.316 ng/mL,,,,,"cytotoxicity at 25 µM ([1]; 25 μM, individual replicate values, EN11 series table, read-out: LDH release (% of max.)): 7.55%; cytotoxicity at 50 µM ([1]; 50 μM, individual replicate values, EN11 series table, read-out: LDH release (% of max.)): 10.4%; Average (% positive control) [2, 14]: 4.560 % positive control; Average (% positive control) [2, 15]: 20.130 % positive control"

# More lines, main results first:
"Average IL-1β ([2]; 25 μM, EN11 series table) [ng/mL]","Average IL-1β ([2]; 50 μM, EN11 series table) [ng/mL]",Average IL-1β ([2]; 100 μM) [ng/mL],"Average (% positive control) [2, 13] [% positive control]","Average (% positive control) [2, 19] [% positive control]","Average IL-1β [2, 20] [ng/mL]",Compound,"Average (% positive control) [1, 3] [% positive control]","Average (% positive control) [1, 4] [% positive control]","Average (% positive control) [1, 5] [% positive control]","cytotoxicity at 25 µM [1, 6] [%]","cytotoxicity at 50 µM [1, 7] [%]","cytotoxicity at 100 µM [1, 8] [%]","cytotoxicity at 100 µM [1, 9] [%]","IL-1β [2, 10]","IL-1β [2, 11]","IL-1β [2, 12]","Average (% positive control) [1, 16] [% positive control]","cytotoxicity at 50 µM [1, 17] [%]","cytotoxicity at 50 µM [1, 18] [%]","IL-1β [2, 21]",also measured
,,,,16.422,1.177,"COc1ccc(F)cc1NC(=O)NC(c1nc(-c2cccnc2)no1)C(C)C (stereo not shown) [L01.007, 1-(5-fluoro-2-methoxy-phenyl)-3-{2-methyl-1-[3-(pyridin-3-yl)-1,2,4-oxadiazol-5-yl]propyl}-urea]",,,,,,,,,,,27.756,20.3,17.8,0.859 ng/mL and 1.572 ng/mL and 1.101 ng/mL,
,,,,1.598,0.115,"Cc1ccc(N2C(=O)C(=O)N(Cc3nc(-c4ccsc4)no3)C2=O)cc1 [L01.071, 1-(4-methylphenyl)-3-{[3-(thiophen-3-yl)-1,2,4-oxadiazol-5-yl]-methyl}imidazolidine-2,4,5-trione]",,,,,,,,,,,11.833,8.66,9.01,0.116 ng/mL and 0.097 ng/mL and 0.131 ng/mL,
